Assay results published in patent US8278345B2, “Inhibitors of glutaminyl cyclase” (Probiodrug AG, priority 2006, dated 2012).

molecular target: hQC (Homo sapiens, UniProt Q16769); test: Inhibitor assay for glutaminyl cyclase activity (fluorometric, H-Gln-βNA / H-Gln-AMC); format: biochemical; details: read-out: IC50
In short: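 Ki values came from fitting progress curves to a competitive inhibition model; rapid screens used 4 mM inhibitor with substrate at KM. QC activity was read at 30 °C via auxiliary pyroglutamyl aminopeptidase releasing βNA (0.2 mM H-Gln-βNA, 0.2 M Tris pH 8.0, 20 mM EDTA) or AMC (0.05 M Tris pH 8.0, 5 mM EDTA).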

Sequence of hQC (Q16769 29-361): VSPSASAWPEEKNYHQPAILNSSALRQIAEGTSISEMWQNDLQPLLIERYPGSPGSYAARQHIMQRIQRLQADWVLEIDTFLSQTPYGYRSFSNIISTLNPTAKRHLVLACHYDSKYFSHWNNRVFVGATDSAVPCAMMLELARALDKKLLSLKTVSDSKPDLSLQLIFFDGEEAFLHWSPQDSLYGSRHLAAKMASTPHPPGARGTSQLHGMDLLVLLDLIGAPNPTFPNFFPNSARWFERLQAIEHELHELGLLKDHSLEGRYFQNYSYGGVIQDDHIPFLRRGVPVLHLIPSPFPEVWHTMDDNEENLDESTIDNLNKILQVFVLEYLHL

IC50 [µM]	Compound
0.76	Cc1ccc(C2C(C(=O)CC(C)C)=C(O)C(=O)N2c2ccc3[nH]cnc3c2)o1 (centres unmarked) [Compound 289, 1-(1H-Benzoimidazol-5-yl)-3-hydroxy-4-(3-methyl-butyryl)-5-(5-methyl-furan-2-yl)-1,5-dihydro-pyrrol-2-one]
0.49	CC(C)CC(=O)C1=C(O)C(=O)N(c2ccc3[nH]cnc3c2)C1C1CCOC1 (centres unmarked) [Compound 291, 1-(1H-Benzoimidazol-5-yl)-3-hydroxy-4-(3-methyl-butyryl)-5-(tetrahydro-furan-3-yl)-1,5-dihydro-pyrrol-2-one]
9.94	CCCC1=C(O)C(=O)N(c2ccc3[nH]cnc3c2)C1c1ccc(C(=O)O)o1 (centres unmarked) [Compound 292, 5-[1-(1H-Benzoimidazol-5-yl)-4-hydroxy-5-oxo-3-propyl-2,5-dihydro-1H-pyrrol-2-yl]-furan-2-carboxylic acid]
9.85	CC(=O)C1=C(O)C(=O)N(c2ccc3[nH]cnc3c2)C1C1COC(C)(C)O1 (centres unmarked) [Compound 295, 4-Acetyl-1-(1H-benzoimidazol-5-yl)-5-(2,2-dimethyl-[1,3]dioxolan-4-yl)-3-hydroxy-1,5-dihydro-pyrrol-2-one]
3	O=C(C1=C(O)C(=O)N(c2ccc3[nH]cnc3c2)C1c1ccnc2ccccc12)C1CC1 (centres unmarked) [Compound 296, 1-(1H-Benzoimidazol-5-yl)-4-cyclopropanecarbonyl-3-hydroxy-5-quinolin-4-yl-1,5-dihydro-pyrrol-2-one]
7.87	Cc1[nH]c2ccccc2c1C1C(C(=O)C2CC2)=C(O)C(=O)N1c1ccc2[nH]cnc2c1 (centres unmarked) [Compound 298, 1-(1H-Benzoimidazol-5-yl)-4-cyclopropanecarbonyl-3-hydroxy-5-(2-methyl-1H-indol-3-yl)-1,5-dihydro-pyrrol-2-one]

Second part, the molecule before the results:

Compound	IC50 [µM]
Cc1ccc(O)c(C2C(c3ccc(O)cc3)=C(O)C(=O)N2c2ccc3[nH]cnc3c2)c1 (centres unmarked) [Compound 284, 1-(1H-Benzoimidazol-5-yl)-3-hydroxy-5-(2-hydroxy-5-methyl-phenyl)-4-(4-hydroxy-phenyl)-1,5-dihydro-pyrrol-2-one]	7.15
Cc1[nH]c2ccccc2c1C1C(c2c[nH]c3ccccc23)=C(O)C(=O)N1c1ccc2[nH]cnc2c1 (centres unmarked) [Compound 285, 1-(1H-Benzoimidazol-5-yl)-3-hydroxy-4-(1H-indol-3-yl)-5-(2-methyl-1H-indol-3-yl)-1,5-dihydro-pyrrol-2-one]	5.71
O=C1C(O)=C(c2ccc(O)cc2)C(c2coc3ccccc3c2=O)N1c1ccc2[nH]cnc2c1 (centres unmarked) [Compound 286, 1-(1H-Benzoimidazol-5-yl)-3-hydroxy-4-(4-hydroxy-phenyl)-5-(4-oxo-4H-chromen-3-yl)-1,5-dihydro-pyrrol-2-one]	3.55
CCC1=C(O)C(=O)N(c2ccc3[nH]cnc3c2)C1c1cc(Br)c(O)c(Br)c1 (centres unmarked) [Compound 288, 1-(1H-Benzoimidazol-5-yl)-5-(3,5-dibromo-4-hydroxy-phenyl)-4-ethyl-3-hydroxy-1,5-dihydro-pyrrol-2-one]	2.29
CCC1=C(O)C(=O)N(c2ccc3[nH]cnc3c2)C1c1c(F)ccc(Cl)c1F (centres unmarked) [Compound 290, 1-(1H-Benzoimidazol-5-yl)-5-(3-chloro-2,6-difluoro-phenyl)-4-ethyl-3-hydroxy-1,5-dihydro-pyrrol-2-one]	3.82
O=C(C1=C(O)C(=O)N(c2ccc3[nH]cnc3c2)C1c1ccnc2ccccc12)C1CCCCC1 (centres unmarked) [Compound 293, 1-(1H-Benzoimidazol-5-yl)-4-cyclohexanecarbonyl-3-hydroxy-5-quinolin-4-yl-1,5-dihydro-pyrrol-2-one]	0.22
O=C1C(O)=C(c2cccc(O)c2)C(c2ccc(O)c(Br)c2)N1c1ccc2[nH]cnc2c1 (centres unmarked) [Compound 294, 1-(1H-Benzoimidazol-5-yl)-5-(3-bromo-4-hydroxy-phenyl)-3-hydroxy-4-(3-hydroxy-phenyl)-1,5-dihydro-pyrrol-2-one]	5.71
O=C(O)CC1=C(O)C(=O)N(c2ccc3[nH]cnc3c2)C1c1ccnc2ccccc12 (centres unmarked) [Compound 297, [1-(1H-Benzoimidazol-5-yl)-4-hydroxy-5-oxo-2-quinolin-4-yl-2,5-dihydro-1H-pyrrol-3-yl]-acetic acid]	2.38
